One series concerns DENV NS2B-NS3 protease. The conditions noted are these: cited from earlier work.
The test system of the next series is DENV-2. The conditions noted are these: cited from earlier work.
Another series deals with ZIKV PRVABC 59. Description: Plaque assay, ZIKV PRVABC 59 virus production. The conditions noted are these: 100 μM, additional cell line U251 used, supernatant 47 h postinfection. It counts as cell-based, Zika virus (ZIKV).
For another series, the system named is ZIKV MR766. Description: Plaque assay, ZIKV MR766 virus production. The conditions noted are these: additional cell line U251 used, supernatant 71 h postinfection. It counts as cell-based, Zika virus (ZIKV).
A further series relates to ZIKV. Description: Time-of-addition assay, ZIKV (PRVABC 59 and MR766). Format: cell-based, Zika virus (ZIKV).
A further series concerns MR766 strain. Description: Time-of-addition assay, ZIKV MR766 posttreatment. Format: cell-based, Zika virus (ZIKV). The conditions noted are these: Vero cells, RC-101 40 μM added 1 h postinfection for 71 h, MOI 0.1, plaque assay.
The test system of the next series is ZIKV replicon. Description: ZIKV replicon luciferase assay. Format: cell-based, Zika virus (ZIKV). The conditions noted are these: BHK-21 cells, three independent experiments. Background: Replicon systems follow genome replication, usually without infectious particles.
A further series concerns the target T1, ZIKV NS2B-NS3pro (Zika virus, UniProt A0A024B7W1).
T1 construct: the NS2B fragments were amplified by PCR; made in house; host or cells: E. coli BL21(DE3), pET28a
Put plainly: Proteolytic activity of NS2B-NS3 protease. It counts as biochemical.

A further series relates to JEV NS3. Format: cell-based, Japanese encephalitis virus (JEV). The conditions noted are these: BHK-21 cells.
Series [1] deals with JEV AT31. Description: Viral titer reduction (plaque) assay, JEV in BHK-21 cells. It counts as cell-based, Japanese encephalitis virus (JEV). The conditions noted are these: MOI 0.1, six independent experiments.
For series [2], the system named is JEV AT31. Description: Viral titer reduction (plaque) assay, JEV in U251 cells. Format: cell-based, Japanese encephalitis virus (JEV). The conditions noted are these: MOI 0.1, six independent experiments.
Another series relates to JEV. It counts as cell-based, Japanese encephalitis virus (JEV). The conditions noted are these: 50 μM RC-101, coadministration, BHK-21 cells.
The subject of the next series is JEV N154A variant. It counts as cell-based, Japanese encephalitis virus (JEV). The conditions noted are these: coadministration, BHK-21 cells, Western blot and plaque assay. In general terms: A western blot detects proteins with antibodies after separation by electrophoresis.
For the next series, the system named is JEV H144A variant. It counts as cell-based, Japanese encephalitis virus (JEV). The conditions noted are these: coadministration, BHK-21 cells, Western blot and plaque assay.
The test system of a further series is JEV Q258A variant. It counts as cell-based, Japanese encephalitis virus (JEV). The conditions noted are these: coadministration, BHK-21 cells, Western blot and plaque assay.
Another series addresses T2, WT DIII (Japanese encephalitis virus, UniProt P27395).
T2 construct: The WT DIII expression vector was constructed using pET-22b(+) and preserved in our laboratory; pET-22b(+) normally gives a C-terminal His6); made in house; host or cells: E. coli BL21(DE3), pET-22b(+)
Put plainly: Binding affinity, biolayer interferometry, WT DIII. The conditions noted are these: Octet QK, DIII immobilized, RC-101 200, 100, 50 nM, 1:1 binding model. The arrangement: species or system Japanese encephalitis virus (JEV). On the technique in general: BLI is a label-free optical method that tracks binding on a fibre tip over time.

The target in the next series is T3, DE mutant DIII (Japanese encephalitis virus, UniProt P27395, N661A/S658A/S659A/T657A).
T3 construct: DE loop mutant DIII (B), and bovine serum albumin (BSA) (C) were immobilized onto biosensors; pET-22b(+) normally gives a C-terminal His6); made in house
Put plainly: Binding affinity, biolayer interferometry, DE mutant DIII. Further details: species or system Japanese encephalitis virus (JEV). The conditions noted are these: relative to WT DIII.

The subject of a further series is Vero cells. The conditions noted are these: up to 100 μM, 72 h, CCK-8 assay.
The next series concerns HIV gp120. The conditions noted are these: cited from earlier work.
Series [3] concerns influenza virus hemagglutinin. The conditions noted are these: cited from earlier work.
Series [4] relates to herpes simplex virus 1/2 (HSV-1/2) glycoprotein. The conditions noted are these: cited from earlier work.

Where two headings read alike, the source gives them in different places. Where no end group is shown, it is not given here.

As to “GICRCICGRGICRCICGR (also: bicyclic or more (positions not given here)) [RC-1]”, in the series with DENV NS2B-NS3 protease, the “inhibition of DENV NS2B-NS3 protease” value is reported as “reported to inhibit DENV NS2B-NS3 protease”. In addition, in the series on DENV-2, the “inhibition of DENV-2 replication” value is “inhibit DENV-2 replication”.
`CC[C@H](C)[C@@H]1NC(=O)CNC(=O)[C@H](CCCCN)NC(=O)CNC(=O)[C@@H]2CSSC[C@H](NC1=O)C(=O)N[C@@H](CCCNC(=N)N)C(=O)N[C@H]1CSSC[C@H](NC(=O)[C@H](CCCNC(=N)N)NC(=O)[C@@H]3CSSC[C@H](NC(=O)[C@H]([C@@H](C)CC)NC1=O)C(=O)NCC(=O)N[C@@H](CCCNC(=N)N)C(=O)NCC(=O)N[C@@H]([C@@H](C)CC)C(=O)N3)C(=O)N[C@@H]([C@@H](C)CC)C(=O)N2` [RC-101, retrocyclin-101]: the “virus production (plaques)” value in the series on ZIKV PRVABC 59 is “few plaques were found”. Further, the results for the virus production reduction entry in the series on ZIKV MR766 (12.5 μM) and in the series with ZIKV MR766 (100 μM) were “approximately 1 log unit” and “approximately 7 log units”, respectively. In addition, the “approximate IC98 against ZIKV” value in the series on ZIKV (IC98 from dose-response against ZIKV (Fig. 1)) was approximately 50 µM. The “suppression of viral titers, pretreatment” value in the series with ZIKV (Vero cells, RC-101 40 μM for 1 h before infection (-1 to 0 h), ZIKV MOI 0.1, plaque assay) is “no suppression of viral titers was observed”. In the series on ZIKV (Vero cells, RC-101 40 μM with ZIKV MOI 0.1, 0 to 1 h, plaque assay), the “inhibitory effect, coadministration” value is given as “significant inhibitory effects”. Besides, the “suppression of viral titers, virucidal treatment” value with ZIKV (ZIKV (MOI 2.5) incubated with RC-101 40 μM at 37°C for 1 h, diluted 25-fold to infect Vero cells 1 h, plaque assay) was “no suppression of viral titers was observed”. Also, the “inhibition of infection, posttreatment” value in the series with MR766 strain is reported as “inhibited MR766 strain infection”. The “initial translation of replicon RNA (luciferase activity)” value in the series on ZIKV replicon (2 h postelectroporation) is given as “little effect”. The “luciferase signal (replication)” value with ZIKV replicon (48 h postelectroporation) is “appreciable reduction”. Besides, the IC50 (usually the concentration that inhibits the measured activity by half) against ZIKV NS2B-NS3pro came out at 7.2 µM. Moreover, in the series on JEV NS3 (JEV AT31 MOI 0.1, 1 h preinfection RC-101, lysates 23 h postinfection), the “expression of JEV NS3” value is listed as “inhibited in a dose-dependent manner”. Further, the “unprocessed polyprotein precursor (>180 kDa) expression” value in the series on JEV NS3 (JEV AT31 MOI 0.1, RC-101 3.125 μM versus 0.78125 μM, 23 h postinfection) is “significantly higher”. The “unprocessed polyprotein precursor (>180 kDa) presence” value in the series on JEV NS3 (JEV AT31 MOI 0.1, RC-101 0.78125 and 3.125 μM, 23 h postinfection) was “present”; in the series with JEV NS3 (JEV AT31 MOI 0.1, RC-101 12.5 and 50 μM, 23 h postinfection) it was “decreased”. Further, the “inhibition of JEV infection (viral titer)” value with JEV AT31 [1] and in the series on JEV AT31 [2] was “robustly inhibited JEV infection” each time. In addition, in the series on JEV (MOI 0.1, 24 h postinfection), the “prM band (Western blot)” value is on record as “hardly detectable”. In the series on JEV (plaque assay), the viral titers decrease result is recorded as “approximately 3 log units”. The “inhibition of infection by mutant virus” value in the series on JEV N154A variant and in the series with JEV H144A variant was “inhibited infections” throughout. In the series on JEV Q258A variant, the “sensitivity of mutant virus to RC-101” value was “likely had increased sensitivity”. In addition, at WT DIII, the “kinetic dissociation (Kd)” value was 0.000118 s⁻¹. Further, on DE mutant DIII, the “decrease of binding affinity, DE mutant versus WT DIII” value is 1 order of magnitude. Further, in the series on Vero cells, the “cytotoxicity (cell viability)” value is recorded as “marginal response even at 100 μM”. The “resistance of mutant virus to RC-101” value was “resistance to RC-101 at the protein level and in the low-multiplication of infection (MOI) assay” in the series with JEV H319A variant; “robust resistance to RC-101 in all assays” with JEV DE mutant; “robust resistance to RC-101 in all assays” in the series on JEV T410A variant. The “binding affinity to HIV gp120” value with HIV gp120 is listed as “high binding affinity”. The “binding affinity to influenza virus hemagglutinin” value in [3] is “high binding affinity”. The “binding affinity to HSV-1/2 glycoprotein” value in series [4] is reported as “high binding affinity”.

The values above are taken from PMC8274595, “Mechanism through Which Retrocyclin Targets Flavivirus Multiplication” (Journal of Virology, 2021).
